Measurements: ChEMBL document CHEMBL2417537, “Synthesis and antifungal activity of terpenyl-1,4-naphthoquinone and 1,4-anthracenedione derivatives” (Eur J Med Chem, 2013)
Converted amounts (≈) assume the structure as drawn. The source made the active and inactive calls. The calls are words filed in the database; no cut-off is given here.

Key:
[1] = test system: Candida parapsilosis; test: Antifungal activity against Candida parapsilosis ATCC 22019 after 24 hrs; format: functional; conditions: ATCC 22019, 24 h
[2] = test system: Vero; test: Cytotoxicity against african green monkey Vero cells after 48 hrs by MTT assay; format: cell-based; conditions: Chlorocebus sabaeus
[3] = test system: Pichia kudriavzevii; test: Antifungal activity against Candida krusei ATCC 6258 after 24 hrs; format: functional; conditions: ATCC 6258, 24 h
[4] = test system: Aspergillus flavus; test: Antifungal activity against Aspergillus flavus ATCC 204304 after 48 hrs; format: functional; conditions: ATCC 204304, 48 h
[5] = test system: Trichophyton mentagrophytes; test: Antifungal activity against Trichophyton mentagrophytes ATCC 24198 after 6 days; format: functional; conditions: ATCC 24198, 144 h
[6] = test system: Trichophyton rubrum; test: Antifungal activity against Trichophyton rubrum ATCC 28188 after 6 days; format: functional; conditions: ATCC 28188, 144 h
[7] = test system: Candida parapsilosis; test: Antifungal activity against Candida parapsilosis ATCC 22019 at > MIC up to 24 hrs by time kill study; format: functional, organism-based
[8] = Selectivity index, ratio of IC50 for african green monkey Vero cells to IC50 for Aspergillus flavus ATCC 204304; format: toxicity, cell-based; conditions: read-out: Ratio IC50
[9] = test system: Aspergillus fumigatus; test: Antifungal activity against Aspergillus fumigatus ATCC 204305 after 48 hrs; format: functional; conditions: ATCC 204305, 48 h
[10] = test system: Candida parapsilosis; test: Antifungal activity against Candida parapsilosis ATCC 22019 at 0.5 MIC up to 24 hrs by time kill study; format: functional, organism-based
[11] = Selectivity index, ratio of IC50 for african green monkey Vero cells to IC50 for Candida parapsilosis ATCC 22019; format: toxicity, cell-based
[12] = Selectivity index, ratio of IC50 for african green monkey Vero cells to IC50 for Candida lusitaniae ATCC 200951; format: toxicity, cell-based; conditions: read-out: Ratio IC50
[13] = test system: Fusarium oxysporum; test: Antifungal activity against Fusarium oxysporum ATCC 48112 after 48 hrs; format: functional; conditions: ATCC 48112, 48 h
[14] = test system: Candida albicans; test: Antifungal activity against Candida albicans ATCC 90028 after 24 hrs; format: functional; conditions: ATCC 90028, 24 h
[15] = test system: Candida albicans; test: Antifungal activity against Candida albicans ATCC 10231 after 24 hrs; format: functional; conditions: ATCC 10231, 24 h
[16] = Selectivity index, ratio of IC50 for african green monkey Vero cells to IC50 for Candida krusei ATCC 6258; format: toxicity, cell-based; conditions: read-out: Ratio IC50
[17] = test system: Clavispora lusitaniae; test: Antifungal activity against Candida lusitaniae ATCC 200951 after 24 hrs; format: functional; conditions: ATCC 200951, 24 h
[18] = test system: Candida tropicalis; test: Antifungal activity against Candida tropicalis CECT 11901 after 24 hrs; conditions: CECT 11901, 24 h
[19] = test system: Candida tropicalis; test: Antifungal activity against Candida tropicalis ATCC 200956 after 24 hrs; format: functional; conditions: ATCC 200956, 24 h
[20] = test system: Aspergillus terreus; test: Antifungal activity against Aspergillus terreus CDC 317 after 48 hrs; format: functional; conditions: CDC 317, 48 h
[21] = test system: Aspergillus niger; test: Antifungal activity against Aspergillus niger ATCC 16404 after 48 hrs; format: functional; conditions: ATCC 16404, 48 h

| SMILES | MIC90 [1] [µg/mL] | IC50 [2] [µg/mL] | MIC90 [3] [µg/mL] | MIC90 [4] [µg/mL] | MIC90 [5] [µg/mL] | MIC90 [6] [µg/mL] | Activity [7] | selectivity ratio [8] | MIC90 [9] [µg/mL] | also measured |
| --- | --- | --- | --- | --- | --- | --- | --- | --- | --- | --- |
| C[C@@H]1[C@H](O)[C@@H](C)/C=C/C=C/C=C/C=C/C=C/C=C/C=C/[C@H](O[C@@H]2O[C@H](C)[C@@H](O)[C@H](N)[C@@H]2O)C[C@@H]2O[C@](O)(C[C@@H](O)C[C@@H](O)[C@H](O)CC[C@@H](O)C[C@@H](O)CC(=O)O[C@H]1C)C[C@H](O)[C@H]2C(=O)O [AMPHOTERICIN B] | 2 (≈ 2.16 µM) | 28.6 (≈ 30.9 µM) | 2 (≈ 2.16 µM) | 4 (≈ 4.33 µM) | < 0.004 | < 0.004 | Active | 7.1 | 2 (≈ 2.16 µM) | – |
| CC1(C)CCCc2cc3c(cc21)C(=O)C(Cl)=C(Cl)C3=O | 2 (≈ 6.47 µM) | ≤ 25 | 1 (≈ 3.23 µM) | 4.8 (≈ 15.5 µM) | 6.1 (≈ 19.7 µM) | 8 (≈ 25.9 µM) | Active | > 5.2 | 8 (≈ 25.9 µM) | Activity [10]: inactive; selectivity ratio [11]: > 12.5; selectivity ratio [12]: > 12.5; MIC90 [13]: > 32 µg/mL; MIC90 [14]: 8 µg/mL (≈ 25.9 µM); MIC90 [15]: > 32 µg/mL; selectivity ratio [16]: > 25; MIC90 [17]: 2 µg/mL (≈ 6.47 µM); MIC90 [18]: > 32 µg/mL; MIC90 [19]: 5 µg/mL (≈ 16.2 µM); MIC90 [20]: > 32 µg/mL; MIC90 [21]: > 32 µg/mL |
